Results taken from PMC5362750, “Discovery of Potent, Selective, and Orally Bioavailable Small-Molecule Modulators of the Mediator Complex-Associated Kinases CDK8 and CDK19” (Journal of Medicinal Chemistry, 2016).

Tests used:
MTOR = MTOR (Homo sapiens, UniProt P42345); assay: Kinase panel (Millipore); format: biochemical; settings: 1 µM, ATP at Km
cMET (Y1248C) = cMET (Y1248C) (Homo sapiens, UniProt P08581, Y1230C); settings: 1 µM, ATP at Km
MAO-A = biological target: T1, MAO-A (Rattus norvegicus, UniProt P21396); assay: CEREP binding assay; settings: antagonist radioligand, read-out: % Inhibition of Control Specific Binding
T1 construct: purchased Millipore (KinaseProfiler) kinase panel

LOK = biological target: T2, LOK (Homo sapiens, UniProt O94804); assay: Kinase panel (Millipore); format: biochemical; settings: 1 µM, ATP at Km
T2 construct: purchased Millipore (KinaseProfiler) kinase panel

ABL = ABL (Homo sapiens, UniProt P00519); assay: Kinase panel (Millipore); format: biochemical; settings: 1 µM, ATP at Km
in vivo = settings: female, NMRI, mouse, po, 0.5 mg/kg
CDK5/P35 = CDK5/P35 (Homo sapiens, UniProt Q00535); settings: 1 µM, ATP at Km
ABL(Y253F) = ABL(Y253F) (Homo sapiens, UniProt P00519, Y253F); settings: 1 µM, ATP at Km
SRC = SRC (Homo sapiens, UniProt P12931); assay: Kinase panel (Millipore); format: biochemical; settings: 1 µM, ATP at Km
SGK2 = biological target: T3, SGK2 (Homo sapiens, UniProt Q9HBY8); assay: Kinase panel (Millipore); format: biochemical; settings: 1 µM, ATP at Km
T3 construct: purchased Millipore (KinaseProfiler) kinase panel

LIMK1 = LIMK1 (Homo sapiens, UniProt P53667); assay: Kinase panel (Millipore); format: biochemical; settings: 1 µM, ATP at Km
UT (h) = biological target: T4, UT (h) (Homo sapiens, UniProt Q9UKP6); assay: CEREP binding assay; settings: agonist radioligand, read-out: % Inhibition of Control Specific Binding
T4 construct: CEREP

EPHA2 = EPHA2 (Homo sapiens, UniProt P29317); assay: Kinase panel (Millipore); format: biochemical; settings: 1 µM, ATP at Km
PKA = PKA (Homo sapiens, UniProt P17612); assay: Kinase panel (Millipore); format: biochemical; settings: 1 µM, ATP at Km
PAK2 = biological target: T5, PAK2 (Homo sapiens, UniProt Q13177); assay: Kinase panel (Millipore); format: biochemical; settings: 1 µM, ATP at Km
T5 construct: purchased Millipore (KinaseProfiler) kinase panel

ROCK-I = ROCK-I (Homo sapiens, UniProt Q13464); assay: Kinase panel (Millipore); format: biochemical; settings: 1 µM, ATP at Km
AXL = biological target: T6, AXL (Homo sapiens, UniProt P30530); assay: Kinase panel (Millipore); format: biochemical; settings: 1 µM, ATP at Km
T6 construct: purchased Millipore (KinaseProfiler) kinase panel

EPHA7 = biological target: T7, EPHA7 (Homo sapiens, UniProt Q15375); assay: Kinase panel (Millipore); format: biochemical; settings: 1 µM, ATP at Km
T7 construct: purchased Millipore (KinaseProfiler) kinase panel

FYN = FYN (Homo sapiens, UniProt P06241); assay: Kinase panel (Millipore); format: biochemical; settings: 1 µM, ATP at Km
M4 (h) = M4 (h) (Homo sapiens, UniProt P08173); assay: biochemical; settings: read-out: % Inhibition of Control Specific Binding
FGFR1(V561M) = FGFR1(V561M) (Homo sapiens, UniProt P11362, V561M); settings: 1 µM, ATP at Km
JAK2 = biological target: T8, JAK2 (Homo sapiens, UniProt O60674); assay: Kinase panel (Millipore); format: biochemical; settings: 1 µM, ATP at Km
T8 construct: purchased Millipore (KinaseProfiler) kinase panel

FGR = FGR (Homo sapiens, UniProt P09769); assay: Kinase panel (Millipore); format: biochemical; settings: 1 µM, ATP at Km
CDK9/CYCLINT1 = CDK9/CYCLINT1 (Homo sapiens, UniProt P50750); settings: 1 µM, ATP at Km
A2B (h) = A2B (h) (Homo sapiens, UniProt P29275); assay: biochemical; settings: read-out: % Inhibition of Control Specific Binding
FGFR4 = FGFR4 (Homo sapiens, UniProt P22455); assay: Kinase panel (Millipore); format: biochemical; settings: 1 µM, ATP at Km
CAMKIV = CAMKIV (Homo sapiens, UniProt Q16566); assay: Kinase panel (Millipore); format: biochemical; settings: 1 µM, ATP at Km
BMX = biological target: T9, BMX (Homo sapiens, UniProt P51813); assay: Kinase panel (Millipore); format: biochemical; settings: 1 µM, ATP at Km
T9 construct: purchased Millipore (KinaseProfiler) kinase panel

PI3K BETA = PI3K BETA (Homo sapiens, UniProt P42338); assay: Kinase panel (Millipore); format: biochemical; settings: 1 µM, ATP at Km
MST3 = biological target: T10, MST3 (Homo sapiens, UniProt Q9Y6E0); assay: Kinase panel (Millipore); format: biochemical; settings: 1 µM, ATP at Km
T10 construct: purchased Millipore (KinaseProfiler) kinase panel

TAO2 = biological target: T11, TAO2 (Homo sapiens, UniProt Q9UL54); assay: Kinase panel (Millipore); format: biochemical; settings: 1 µM, ATP at Km
T11 construct: purchased Millipore (KinaseProfiler) kinase panel

CK1(Y) = assay: Kinase panel (Millipore); format: biochemical; settings: 1 µM, ATP at Km
FES = FES (Homo sapiens, UniProt P07332); assay: Kinase panel (Millipore); format: biochemical; settings: 1 µM, ATP at Km
BTK(R28H) = BTK(R28H) (Homo sapiens, UniProt Q06187, R28H); settings: 1 µM, ATP at Km
EGFR(T790M,L858R) = EGFR(T790M,L858R) (Homo sapiens, UniProt P00533, L858R/T790M); settings: 1 µM, ATP at Km
DAPK2 = DAPK2 (Homo sapiens, UniProt Q9UIK4); assay: Kinase panel (Millipore); format: biochemical; settings: 1 µM, ATP at Km
MST2 = biological target: T12, MST2 (Homo sapiens, UniProt Q13188); assay: Kinase panel (Millipore); format: biochemical; settings: 1 µM, ATP at Km
T12 construct: purchased Millipore (KinaseProfiler) kinase panel

cMET (M1268T) = cMET (M1268T) (Homo sapiens, UniProt P08581, M1250T); settings: 1 µM, ATP at Km
GRK5 = biological target: T13, GRK5 (Homo sapiens, UniProt P34947); assay: Kinase panel (Millipore); format: biochemical; settings: 1 µM, ATP at Km
T13 construct: purchased Millipore (KinaseProfiler) kinase panel

TAO1 = biological target: T14, TAO1 (Homo sapiens, UniProt Q7L7X3); assay: Kinase panel (Millipore); format: biochemical; settings: 1 µM, ATP at Km
T14 construct: purchased Millipore (KinaseProfiler) kinase panel

alpha 1B (h) = alpha 1B (h) (Homo sapiens, UniProt P35368); assay: biochemical; settings: read-out: % Inhibition of Control Specific Binding
SRC(1-530) = SRC(1-530) (Homo sapiens, UniProt P12931); assay: Kinase panel (Millipore); format: biochemical; settings: 1 µM, ATP at Km
IKKBETA = biological target: T15, IKKBETA (Homo sapiens, UniProt O14920); assay: Kinase panel (Millipore); format: biochemical; settings: 1 µM, ATP at Km
T15 construct: purchased Millipore (KinaseProfiler) kinase panel

T14 sequence (Q7L7X3 whole entry): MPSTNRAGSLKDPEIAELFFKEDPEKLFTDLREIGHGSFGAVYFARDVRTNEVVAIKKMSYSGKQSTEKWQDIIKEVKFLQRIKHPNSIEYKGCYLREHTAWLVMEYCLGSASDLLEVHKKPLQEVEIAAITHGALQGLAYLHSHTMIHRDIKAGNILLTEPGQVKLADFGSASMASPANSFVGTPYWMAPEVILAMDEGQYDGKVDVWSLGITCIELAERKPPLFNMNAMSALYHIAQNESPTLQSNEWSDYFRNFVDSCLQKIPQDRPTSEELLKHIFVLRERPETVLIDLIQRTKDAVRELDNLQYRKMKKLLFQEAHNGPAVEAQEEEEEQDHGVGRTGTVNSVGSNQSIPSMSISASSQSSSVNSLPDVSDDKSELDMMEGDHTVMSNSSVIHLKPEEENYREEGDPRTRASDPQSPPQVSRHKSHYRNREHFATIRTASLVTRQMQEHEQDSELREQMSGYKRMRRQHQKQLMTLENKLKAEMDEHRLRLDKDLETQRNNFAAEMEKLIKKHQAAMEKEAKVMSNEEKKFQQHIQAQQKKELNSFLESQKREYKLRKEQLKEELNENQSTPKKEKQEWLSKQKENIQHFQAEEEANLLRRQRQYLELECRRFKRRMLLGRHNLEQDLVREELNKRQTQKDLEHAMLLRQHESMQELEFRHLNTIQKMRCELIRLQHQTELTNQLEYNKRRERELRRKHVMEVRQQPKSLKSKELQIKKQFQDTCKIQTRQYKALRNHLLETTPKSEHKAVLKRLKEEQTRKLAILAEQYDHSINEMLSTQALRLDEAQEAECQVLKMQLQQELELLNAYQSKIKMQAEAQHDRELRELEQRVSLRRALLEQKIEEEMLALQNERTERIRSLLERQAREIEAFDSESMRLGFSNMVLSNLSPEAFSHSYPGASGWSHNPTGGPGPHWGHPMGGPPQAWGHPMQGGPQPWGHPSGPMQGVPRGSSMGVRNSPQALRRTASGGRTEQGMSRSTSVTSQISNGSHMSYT
CAMKIV, sequence (Q16566 whole entry): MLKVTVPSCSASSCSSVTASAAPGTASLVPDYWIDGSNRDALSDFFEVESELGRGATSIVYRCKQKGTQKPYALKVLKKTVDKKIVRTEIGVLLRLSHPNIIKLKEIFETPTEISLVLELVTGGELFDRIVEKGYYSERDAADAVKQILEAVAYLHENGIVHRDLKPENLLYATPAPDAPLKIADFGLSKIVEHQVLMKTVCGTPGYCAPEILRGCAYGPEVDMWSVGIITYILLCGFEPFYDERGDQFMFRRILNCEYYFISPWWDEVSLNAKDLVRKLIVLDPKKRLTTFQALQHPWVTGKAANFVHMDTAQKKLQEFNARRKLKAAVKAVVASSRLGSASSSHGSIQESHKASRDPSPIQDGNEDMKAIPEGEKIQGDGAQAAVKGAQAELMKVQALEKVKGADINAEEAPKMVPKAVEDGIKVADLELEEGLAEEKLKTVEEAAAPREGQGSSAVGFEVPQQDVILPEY
FGR, sequence (P09769 whole entry): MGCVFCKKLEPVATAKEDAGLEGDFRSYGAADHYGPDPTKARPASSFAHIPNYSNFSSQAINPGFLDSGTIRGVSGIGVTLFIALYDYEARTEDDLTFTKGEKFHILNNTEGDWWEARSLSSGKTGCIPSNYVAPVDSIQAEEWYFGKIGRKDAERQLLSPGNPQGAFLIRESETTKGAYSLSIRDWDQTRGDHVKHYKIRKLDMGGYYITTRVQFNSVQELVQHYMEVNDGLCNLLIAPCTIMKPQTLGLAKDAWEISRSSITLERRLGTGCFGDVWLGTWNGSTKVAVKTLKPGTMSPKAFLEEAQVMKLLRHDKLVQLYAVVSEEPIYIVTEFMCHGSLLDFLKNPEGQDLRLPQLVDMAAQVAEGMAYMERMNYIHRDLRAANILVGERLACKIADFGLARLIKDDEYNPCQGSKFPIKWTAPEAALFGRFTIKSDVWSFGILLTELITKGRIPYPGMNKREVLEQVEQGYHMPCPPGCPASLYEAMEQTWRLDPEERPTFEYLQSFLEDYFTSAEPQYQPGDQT
T4 sequence (Q9UKP6 whole entry): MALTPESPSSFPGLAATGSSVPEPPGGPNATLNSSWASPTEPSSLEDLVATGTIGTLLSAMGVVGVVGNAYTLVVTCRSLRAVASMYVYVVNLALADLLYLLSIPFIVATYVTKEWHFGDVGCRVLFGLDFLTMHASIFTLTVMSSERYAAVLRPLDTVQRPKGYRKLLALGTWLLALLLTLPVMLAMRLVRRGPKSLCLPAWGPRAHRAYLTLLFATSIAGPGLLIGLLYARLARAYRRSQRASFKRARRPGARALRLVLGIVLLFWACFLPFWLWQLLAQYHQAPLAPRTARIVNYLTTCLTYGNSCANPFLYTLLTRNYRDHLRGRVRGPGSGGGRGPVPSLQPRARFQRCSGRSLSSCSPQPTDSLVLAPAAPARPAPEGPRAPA
CDK9/CYCLINT1, sequence (P50750 whole entry): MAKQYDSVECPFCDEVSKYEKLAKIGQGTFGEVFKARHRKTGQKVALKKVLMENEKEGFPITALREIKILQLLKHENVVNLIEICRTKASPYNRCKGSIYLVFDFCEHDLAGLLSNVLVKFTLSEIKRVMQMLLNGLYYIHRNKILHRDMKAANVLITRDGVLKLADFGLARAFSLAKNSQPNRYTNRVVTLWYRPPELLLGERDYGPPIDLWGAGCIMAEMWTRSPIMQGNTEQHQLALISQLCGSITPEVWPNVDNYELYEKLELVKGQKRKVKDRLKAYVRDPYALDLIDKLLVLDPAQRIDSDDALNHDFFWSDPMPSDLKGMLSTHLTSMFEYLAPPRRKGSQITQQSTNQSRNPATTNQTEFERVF
CDK9/CYCLINT1, sequence (O60563 whole entry partner): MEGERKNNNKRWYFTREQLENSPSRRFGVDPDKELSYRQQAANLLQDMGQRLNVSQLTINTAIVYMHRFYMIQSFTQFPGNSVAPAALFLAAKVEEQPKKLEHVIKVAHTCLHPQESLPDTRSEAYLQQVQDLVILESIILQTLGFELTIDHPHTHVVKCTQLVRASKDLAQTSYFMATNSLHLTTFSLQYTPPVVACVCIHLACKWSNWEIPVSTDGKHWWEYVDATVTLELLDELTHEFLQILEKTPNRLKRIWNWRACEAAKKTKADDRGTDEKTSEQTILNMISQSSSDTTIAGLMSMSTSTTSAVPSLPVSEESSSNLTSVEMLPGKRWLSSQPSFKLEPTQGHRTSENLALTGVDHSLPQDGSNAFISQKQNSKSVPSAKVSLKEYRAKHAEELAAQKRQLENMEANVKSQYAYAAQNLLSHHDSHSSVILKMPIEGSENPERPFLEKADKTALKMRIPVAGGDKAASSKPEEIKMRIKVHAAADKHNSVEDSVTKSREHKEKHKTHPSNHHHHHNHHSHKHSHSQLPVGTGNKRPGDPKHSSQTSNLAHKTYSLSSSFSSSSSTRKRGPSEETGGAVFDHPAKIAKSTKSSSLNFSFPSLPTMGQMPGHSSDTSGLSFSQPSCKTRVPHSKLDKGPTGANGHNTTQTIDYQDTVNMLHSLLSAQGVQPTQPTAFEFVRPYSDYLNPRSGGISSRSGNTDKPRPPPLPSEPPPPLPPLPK
CDK5/P35, sequence (Q00535 whole entry): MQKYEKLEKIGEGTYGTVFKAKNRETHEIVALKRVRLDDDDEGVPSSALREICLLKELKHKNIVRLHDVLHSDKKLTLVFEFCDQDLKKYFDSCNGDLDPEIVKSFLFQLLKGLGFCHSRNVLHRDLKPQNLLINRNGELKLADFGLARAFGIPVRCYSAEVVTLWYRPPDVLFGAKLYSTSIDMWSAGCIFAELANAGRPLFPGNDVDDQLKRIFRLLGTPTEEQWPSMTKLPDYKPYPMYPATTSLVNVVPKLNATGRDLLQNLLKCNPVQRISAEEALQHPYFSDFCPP
CDK5/P35, sequence (Q15078 whole entry partner): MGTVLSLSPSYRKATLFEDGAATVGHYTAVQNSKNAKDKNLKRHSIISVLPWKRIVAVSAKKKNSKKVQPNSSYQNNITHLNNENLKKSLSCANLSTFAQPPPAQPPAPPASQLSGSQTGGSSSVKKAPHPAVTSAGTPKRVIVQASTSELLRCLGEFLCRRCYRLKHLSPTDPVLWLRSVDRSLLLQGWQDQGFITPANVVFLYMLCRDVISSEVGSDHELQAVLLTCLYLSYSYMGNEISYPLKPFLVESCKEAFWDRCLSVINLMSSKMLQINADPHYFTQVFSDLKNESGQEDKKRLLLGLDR
FES, sequence (P07332 whole entry): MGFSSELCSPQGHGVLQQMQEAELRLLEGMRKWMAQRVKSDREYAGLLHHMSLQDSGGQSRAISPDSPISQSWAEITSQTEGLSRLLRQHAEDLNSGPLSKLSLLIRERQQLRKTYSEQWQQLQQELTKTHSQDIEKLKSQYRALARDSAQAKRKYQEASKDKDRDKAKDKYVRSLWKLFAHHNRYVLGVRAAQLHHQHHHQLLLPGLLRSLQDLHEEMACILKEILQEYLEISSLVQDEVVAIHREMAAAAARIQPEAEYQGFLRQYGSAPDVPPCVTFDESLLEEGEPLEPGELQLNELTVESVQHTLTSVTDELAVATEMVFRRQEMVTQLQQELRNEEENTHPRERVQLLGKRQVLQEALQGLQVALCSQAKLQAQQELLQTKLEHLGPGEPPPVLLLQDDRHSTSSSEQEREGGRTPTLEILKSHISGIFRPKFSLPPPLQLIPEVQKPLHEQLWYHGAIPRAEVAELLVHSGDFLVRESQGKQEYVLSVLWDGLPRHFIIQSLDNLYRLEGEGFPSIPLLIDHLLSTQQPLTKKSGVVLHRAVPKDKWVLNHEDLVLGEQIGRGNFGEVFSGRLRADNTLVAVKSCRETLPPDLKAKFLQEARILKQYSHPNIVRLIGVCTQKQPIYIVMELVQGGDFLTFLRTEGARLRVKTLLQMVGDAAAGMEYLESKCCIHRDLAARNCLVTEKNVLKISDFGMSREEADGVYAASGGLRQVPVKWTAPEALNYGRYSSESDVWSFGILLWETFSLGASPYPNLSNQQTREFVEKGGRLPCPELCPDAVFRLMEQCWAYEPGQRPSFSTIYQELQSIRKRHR

## Cn1ncc2cc(-c3cnc(N)c(Cl)c3N3CCC4(CCNC4=O)CC3)ccc21 [Compound 109, 8-(2-Amino-3-chloro-5-(1-methyl-1H-indazol-5-yl)pyridin-4-yl)-2,8-diazaspiro[4.5]decan-1-one]
MTOR
  % effect: -3%
cMET (Y1248C)
  % effect: -3%
MAO-A
  inhibition at 10 µM: 8%
LOK
  % effect: 11%
ABL
  % effect: -15%
In vivo
  bioavailability: 30%
CDK5/P35
  % effect: 1%
ABL(Y253F)
  % effect: 1%
SRC
  % effect: 7%
SGK2
  % effect: -3%
LIMK1
  % effect: -13%
UT (h)
  inhibition at 10 µM: 33%
EPHA2
  % effect: 5%
PKA
  % effect: 25%
PAK2
  % effect: -10%
ROCK-I
  % effect: 6%
AXL
  % effect: -4%
EPHA7
  % effect: 13%
FYN
  % effect: 23%
M4 (h)
  inhibition at 10 µM: 22%
FGFR1(V561M)
  % effect: -25%
JAK2
  % effect: -20%
FGR
  % effect: -2%
CDK9/CYCLINT1
  % effect: -8%
A2B (h)
  inhibition at 10 µM: -7%
FGFR4
  % effect: 6%
CAMKIV
  % effect: 14%
BMX
  % effect: -6%
PI3K BETA
  % effect: 2%
MST3
  % effect: -11%
TAO2
  % effect: 2%
CK1(Y)
  % effect: -1%
FES
  % effect: -6%
BTK(R28H)
  % effect: 2%
EGFR(T790M,L858R)
  % effect: 0%
DAPK2
  % effect: -7%
MST2
  % effect: -11%
cMET (M1268T)
  % effect: 1%
GRK5
  % effect: 7%
TAO1
  % effect: 6%
Alpha 1B (h)
  inhibition at 10 µM: 15%
SRC(1-530)
  % effect: 0%
IKKBETA
  % effect: -2%
